Reference: US20240124491A1, “METHODS AND COMPOUNDS FOR TREATING FRIEDREICH'S ATAXIA” (Design Therapeutics, Inc., priority 2021, published 2024)

test system: human FXN; experiment: EC50 assay: FXN mRNA expression by qRT-PCR in GM15850 cells after 48 hrs compound treatment; type: cell-based; conditions: Homo sapiens, 48 hrs incubation, hFXN expression normalized to hGAPDH (qRT-PCR), read-out: EC50 WT (nM, 48 hr)
Procedure: Cell culture: Cells were cultured in RPMI1640 medium+15% FBS. Cells were maintained at a density between 2e5/mL and 1e6/mL. Cells were centrifuged, resuspended in fresh medium, counted and plated at 150,000 cells per well in 100 uL in a non-coated, flat bottom tissue culture plate.
Compound treatment: 10 mM stock solution of FA GeneTAC was diluted 1:10 in DMSO followed by a 1:100 dilution in growth medium. Working solution was then further diluted to 10× desired final concentration of 150 nM. Compound was then diluted at a 1:3 ratio into growth medium containing 0.01% DMSO. 5-point, 3-fold dose response curve was generated. 11 μL of 1OX compound was added to wells containing 100 μL cell suspension of GM15850. 11 μL growth medium containing 0.01% DMSO was added to all wells not treated with FA GeneTAC. Cells were allowed to incubate for 48 hrs prior to cell lysis using guanidine isothiocyanate solution.
RNA isolation: Total RNA was isolated and purified in 384-well column filter plates using chaotropic salt.
qRT-PCR: qRT-PCR reactions were assembled using AgPath-ID reagents (Thermo Fisher) using 6 uL mastermix and 4 μL RNA. qRT-PCR TaqMan primer probe sets against human FXN (Assay ID Hs01075496_m1) and human GAPDH (Assay ID Hs00266705_g1) were used to measure the intended targets. qRT-PCR was run on the ThermoFisher QuantStudio 6 PRO instrument using the manufacturer's recommended cycling conditions.
Data analysis: qPCR data was analyzed using Thermo Fisher Design and Analysis software. Data was exported to Excel and hFXN expression was normalized to hGAPDH expression
A<100 nM; B is 100 nM to 500 nM; C>500 nM.

With Cc1sc2c(c1C)C(c1ccc(Cl)cc1)=N[C@@H](CC(=O)N1CCN(C3CCN(CCOCCOCCOCCOCCOCCOCCNC(=O)CCNC(=O)c4nc(NC(=O)CCNC(=O)c5cc(NC(=O)c6nc(NC(=O)CCNC(=O)c7cc(NC(=O)c8nccn8C)cn7C)cn6C)cn5C)cn4C)CC3)CC1)c1nnc(C)n1-2 [Compound 53] as the compound, how does the EC50 read?
The EC50 was 100 to 500 nM.

With Cc1sc2c(c1C)C(c1ccc(Cl)cc1)=N[C@@H](CC(=O)NCCOCCOCCOCCN(CCOCCOCCOCCNC(=O)C[C@@H]1N=C(c3ccc(Cl)cc3)c3c(sc(C)c3C)-n3c(C)nnc31)CCOCCOCCOCCOCCOCCNC(=O)CCNC(=O)c1nc(NC(=O)CCNC(=O)c3cc(NC(=O)c4nc(NC(=O)CCNC(=O)c5cc(NC(=O)c6nccn6C)cn5C)cn4C)cn3C)cn1C)c1nnc(C)n1-2 [Compound 111] as the compound, how does the EC50 read?
Its EC50 is < 100 nM.

With Cc1sc2c(c1C)C(c1ccc(Cl)cc1)=N[C@@H](CC(=O)Nc1ccc(OCCOCCOCCOCCOCCOCCOCCOCCOCCNC(=O)CCNC(=O)CCNC(=O)c3nc(NC(=O)CCNC(=O)c4cc(NC(=O)c5nc(NC(=O)CCNC(=O)c6cc(NC(=O)c7nccn7C)cn6C)cn5C)cn4C)cn3C)cc1)c1nnc(C)n1-2 [Compound 229] as the compound, how does the EC50 read?
Its EC50 is < 100 nM.

How did the EC50 turn out when Cc1sc2c(c1C)C(c1ccc(Cl)cc1)=N[C@@H](CC(=O)N[C@H]1CC[C@H](N(C)CCOCCOCCOCCN3CCN(CCOCCOCCOCCNC(=O)CCNC(=O)c4nc(NC(=O)CCNC(=O)c5cc(NC(=O)c6nc(NC(=O)CCNC(=O)c7cc(NC(=O)c8nccn8C)cn7C)cn6C)cn5C)cn4C)CC3)CC1)c1nnc(C)n1-2 [Compound 21] was run?
The EC50 was > 500 nM.

Cc1sc2c(c1C)C(c1ccc(Cl)cc1)=N[C@@H](CC(=O)NC1CCN(CCOCCOCCOCCN3CCN(CCN4CCN(CCOCCNC(=O)CCNC(=O)c5nc(NC(=O)CCNC(=O)c6cc(NC(=O)c7nc(NC(=O)CCNC(=O)c8cc(NC(=O)c9nccn9C)cn8C)cn7C)cn6C)cn5C)CC4)CC3)CC1)c1nnc(C)n1-2 [Compound 29] was tested. Which EC50 did it give?
The EC50 was > 500 nM.

Cc1sc2c(c1C)C(c1ccc(Cl)cc1)=N[C@@H](CC(=O)NC1CCN(CC#CC#CC3CCN(CCOCCOCCNC(=O)CCNC(=O)c4nc(NC(=O)CCNC(=O)c5cc(NC(=O)c6nc(NC(=O)CCNC(=O)c7cc(NC(=O)c8nccn8C)cn7C)cn6C)cn5C)cn4C)CC3)CC1)c1nnc(C)n1-2 [Compound 155] was tested. Which EC50 did it give?
Its EC50 is < 100 nM.

How did the EC50 turn out when Cc1sc2c(c1C)C(c1ccc(Cl)cc1)=N[C@@H](CC(=O)NC1CCN(CCOCCOCCOCCN3CCN(CCOCCOCCOCCNC(=O)CCNC(=O)c4nc(NC(=O)CCNC(=O)c5cc(NC(=O)c6nc(NC(=O)CCNC(=O)c7cc(NC(=O)c8nccn8C)cn7C)cn6C)cn5C)cn4C)CC3)CC1)c1nnc(C)n1-2 [Compound 23] was run?
The EC50 was 100 to 500 nM.

How did the EC50 turn out when Cc1sc2c(c1C)C(c1ccc(Cl)cc1)=N[C@@H](CC(=O)NC(C)(C)C#CC#CCNCCOCCOCCOCCOCCOCCOCCNC(=O)CCNC(=O)c1nc(NC(=O)CCNC(=O)c3cc(NC(=O)c4nc(NC(=O)CCNC(=O)c5cc(NC(=O)c6nccn6C)cn5C)cn4C)cn3C)cn1C)c1nnc(C)n1-2 [Compound 130] was run?
Its EC50 is < 100 nM.

For Cc1cc(F)cc(C)c1Oc1ccc(C(C)(C)O)cc1-c1cn(C)c(=O)c2[nH]c(C(=O)NC3CCN(CC#CC#CC4CCN(CCOCCOCCOCCOCCOCCNC(=O)CCNC(=O)c5nc(NC(=O)CCNC(=O)c6cc(NC(=O)c7nc(NC(=O)CCNC(=O)c8cc(NC(=O)c9nccn9C)cn8C)cn7C)cn6C)cn5C)CC4)CC3)cc12 [Compound 158], which EC50 is on record?
Its EC50 is < 100 nM.

How did the EC50 turn out when Cc1sc2c(c1C)C(c1ccc(Cl)cc1)=N[C@@H](CC(=O)Nc1ccc(N3CCC(N4CCN(CCOCCOCCOCCOCCOCCOCCNC(=O)CCNC(=O)c5nc(NC(=O)CCNC(=O)c6cc(NC(=O)c7nc(NC(=O)CCNC(=O)c8cc(NC(=O)c9nccn9C)cn8C)cn7C)cn6C)cn5C)CC4)CC3)cc1)c1nnc(C)n1-2 [Compound 8] was run?
The EC50 was < 100 nM.

Which EC50 does the source give for Cc1sc2c(c1C)C(c1ccc(Cl)cc1)=N[C@@H](CC(=O)N1CCC(C#CC#CCNCCOCCOCCOCCOCCOCCNC(=O)CCNC(=O)c3nc(NC(=O)CCNC(=O)c4cc(NC(=O)c5nc(NC(=O)CCNC(=O)c6cc(NC(=O)c7nccn7C)cn6C)cn5C)cn4C)cn3C)CC1)c1nnc(C)n1-2 [Compound 40] here?
Its EC50 is < 100 nM.

CC(=O)Nc1c(O[C@@H](C)c2ccccc2)cc(C=O)c(N2CCC(C#CC#CC3CCN(CCOCCOCCOCCOCCNC(=O)CCNC(=O)c4nc(NC(=O)CCNC(=O)c5cc(NC(=O)c6nc(NC(=O)CCNC(=O)c7cc(NC(=O)c8nccn8C)cn7C)cn6C)cn5C)cn4C)CC3)CC2)c1F [Compound 136] was tested. Which EC50 did it give?
The EC50 was > 500 nM.

With Cc1sc2c(c1C)C(c1ccc(Cl)cc1)=N[C@@H](CC(=O)Nc1ccc(C#CC#CCNCCOCCOCCOCCOCCOCCNC(=O)CCNC(=O)c3nc(NC(=O)CCNC(=O)c4cc(NC(=O)c5nc(NC(=O)CCNC(=O)c6cc(NC(=O)c7nccn7C)cn6C)cn5C)cn4C)cn3C)cc1)c1nnc(C)n1-2 [Compound 15] as the compound, how does the EC50 read?
Its EC50 is < 100 nM.

Cc1sc2c(c1C)C(c1ccc(Cl)cc1)=N[C@H](CC(=O)NC1CCN(CCOCCOCCOCCOCCOCCC(=O)NCCCN(C)CCCNC(=O)CCNC(=O)c3nc(NC(=O)CCNC(=O)c4cc(NC(=O)c5nc(NC(=O)CCNC(=O)c6cc(NC(=O)c7nccn7C)cn6C)cn5C)cn4C)cn3C)CC1)c1nnc(C)n1-2 [Compound 39] was tested. Which EC50 did it give?
Its EC50 is > 500 nM.

For Cc1sc2c(c1C)C(c1ccc(Cl)cc1)=N[C@@H](CC(=O)N1CCC(C#CC#CC3CCN(CCOCCOCCOCCOCCOCCOCCNC(=O)CCNC(=O)c4nc(NC(=O)CCNC(=O)c5cc(NC(=O)c6nc(NC(=O)CCNC(=O)c7cc(NC(=O)c8nccn8C)cn7C)cn6C)cn5C)cn4C)CC3)CC1)c1nnc(C)n1-2 [Compound 141], which EC50 is on record?
The EC50 was < 100 nM.

For Cc1sc2c(c1C)C(c1ccc(Cl)cc1)=N[C@@H](CC(=O)N1CCN(CC3CCN(CCOCCOCCOCCN4CCC(CN5CCN(C(=O)CCNC(=O)c6nc(NC(=O)CCNC(=O)c7cc(NC(=O)c8nc(NC(=O)CCNC(=O)c9cc(NC(=O)c%10nccn%10C)cn9C)cn8C)cn7C)cn6C)CC5)CC4)CC3)CC1)c1nnc(C)n1-2 [Compound 20], which EC50 is on record?
Its EC50 is > 500 nM.

For Cc1sc2c(c1C)C(c1ccc(Cl)cc1)=N[C@@H](CC(=O)N1CCC(C#CC#CC3CCN(CCOCCNC(=O)CCNC(=O)c4nc(NC(=O)CCNC(=O)c5cc(NC(=O)c6nc(NC(=O)CCNC(=O)c7cc(NC(=O)c8nccn8C)cn7C)cn6C)cn5C)cn4C)CC3)CC1)c1nnc(C)n1-2 [Compound 160], which EC50 is on record?
The EC50 was < 100 nM.

How did the EC50 turn out when Cc1sc2c(c1C)C(c1ccc(Cl)cc1)=N[C@@H](CC(=O)NC1CCN(CCOCCOCCN3CCN(CCOCCOCCOCCOCCNC(=O)CCNC(=O)c4nc(NC(=O)CCNC(=O)c5cc(NC(=O)c6nc(NC(=O)CCNC(=O)c7cc(NC(=O)c8nccn8C)cn7C)cn6C)cn5C)cn4C)CC3)CC1)c1nnc(C)n1-2 [Compound 106] was run?
Its EC50 is < 100 nM.

Cc1sc2c(c1C)C(c1ccc(Cl)cc1)=N[C@@H](CC(=O)Nc1ccc(C#CC#CCN(CCOCCOCCOCCOCCOCCNC(=O)CCNC(=O)c3nc(NC(=O)CCNC(=O)c4cc(NC(=O)c5nc(NC(=O)CCNC(=O)c6cc(NC(=O)c7nccn7C)cn6C)cn5C)cn4C)cn3C)CCC3CCN(C)CC3)cc1)c1nnc(C)n1-2 [Compound 43] was tested. Which EC50 did it give?
Its EC50 is 100 to 500 nM.

Which EC50 does the source give for Cc1sc2c(c1C)C(c1ccc(Cl)cc1)=N[C@@H](CC(=O)N1CCN(CC3CCN(CCOCCOCCOCCOCCN4CCC(CN5CCN(C(=O)CCNC(=O)c6nc(NC(=O)CCNC(=O)c7cc(NC(=O)c8nc(NC(=O)CCNC(=O)c9cc(NC(=O)c%10nccn%10C)cn9C)cn8C)cn7C)cn6C)CC5)CC4)CC3)CC1)c1nnc(C)n1-2 [Compound 19] here?
The EC50 was > 500 nM.

For COc1ccc2c(c1)C(c1ccc(Cl)cc1)=N[C@@H](CC(=O)N1CC3(CCN(CCOCCOCCOCCN4CCN(CCOCCOCCOCCNC(=O)CCNC(=O)c5nc(NC(=O)CCNC(=O)c6cc(NC(=O)c7nc(NC(=O)CCNC(=O)c8cc(NC(=O)c9nccn9C)cn8C)cn7C)cn6C)cn5C)CC4)CC3)C1)c1nnc(C)n1-2 [Compound 26], which EC50 is on record?
The EC50 was > 500 nM.

How did the EC50 turn out when Cc1sc2c(c1C)C(c1ccc(Cl)cc1)=N[C@@H](CC(=O)N1CCC(C#CC#CCN(CCOCCOCCOCCOCCOCCNC(=O)CCNC(=O)c3nc(NC(=O)CCNC(=O)c4cc(NC(=O)c5nc(NC(=O)CCNC(=O)c6cc(NC(=O)c7nccn7C)cn6C)cn5C)cn4C)cn3C)CC(O)COCC(O)CO)CC1)c1nnc(C)n1-2 (stereo partly shown) [Compound 122] was run?
The EC50 was 100 to 500 nM.

With Cc1sc2c(c1C)C(c1ccc(Cl)cc1)=N[C@@H](CC(=O)NC1CCN(CCOCCN3CCC(CN4CCN(CCOCCOCCOCCNC(=O)CCNC(=O)c5nc(NC(=O)CCNC(=O)c6cc(NC(=O)c7nc(NC(=O)CCNC(=O)c8cc(NC(=O)c9nccn9C)cn8C)cn7C)cn6C)cn5C)CC4)CC3)CC1)c1nnc(C)n1-2 [Compound 35] as the compound, how does the EC50 read?
Its EC50 is 100 to 500 nM.

For Cc1sc2c(c1C)C(c1ccc(NC(=O)COCCOCCOCCN3CCN(CC4CCN(C)CC4)CC3)cc1)=N[C@@H](CC(=O)N1CCC(C#CC#CC3CCN(CCOCCOCCOCCOCCNC(=O)CCNC(=O)c4nc(NC(=O)CCNC(=O)c5cc(NC(=O)c6nc(NC(=O)CCNC(=O)c7cc(NC(=O)c8nccn8C)cn7C)cn6C)cn5C)cn4C)CC3)CC1)c1nnc(C)n1-2 [Compound 121], which EC50 is on record?
Its EC50 is 100 to 500 nM.

COc1ccc2c(c1)C(c1ccc(Cl)cc1)=N[C@@H](CC(=O)N1CCC(N3CCN(CCOCCOCCOCCOCCOCCOCCNC(=O)CCNC(=O)c4nc(NC(=O)CCNC(=O)c5cc(NC(=O)c6nc(NC(=O)CCNC(=O)c7cc(NC(=O)c8nccn8C)cn7C)cn6C)cn5C)cn4C)CC3)CC1)c1nnc(C)n1-2 [Compound 52] was tested. Which EC50 did it give?
The EC50 was > 500 nM.
